Experimental data from patent US7208515B2, “Diphenylmethyl compounds useful as muscarinic receptor antagonists” (Theravance, Inc., priority 2004, dated 2007).

How the values were obtained:
[1] = tested on: ACh-induced bronchoconstriction; test: Duration of bronchoprotection in guinea pig model of acetylcholine-induced bronchoconstriction; assay type: in vivo; conditions: inhalation, 1.5 hours post-dose
Experimental: Determination of Duration of Bronchoprotection in Guinea Pig Model of Acetylcholine-Induced Bronchoconstriction
Groups of six male guinea pigs (Duncan-Hartley (HsdPoc:DH) Harlan, Madison, Wis.) weighing between 250 and 350 g were individually identified by cage cards. Throughout the study animals were allowed access to food and water ad libitum.
Test compounds were administered via inhalation over 10 minutes in a whole-body exposure dosing chamber (R&S Molds, San Carlos, Calif.). The dosing chambers were arranged so that an aerosol was simultaneously delivered to 6 individual chambers from a central manifold. Guinea pigs were exposed to an aerosol of a test compound or vehicle (WFI). […] This was measured gravimetrically by comparing pre-and post-nebulization weights of the filled nebulizer.
The bronchoprotective effects of test compounds administered via inhalation were evaluated using whole body plethysmography at 1.5, 24, 48 and 72 hours post-dose.
Forty-five minutes prior to the start of the pulmonary evaluation, each guinea pig was anesthetized with an intramuscular injection of ketamine (43.75 mg/kg), xylazine (3.50 mg/kg) and acepromazine (1.05 mg/kg). […] The depth of anesthesia was monitored and adjusted if the animal responded to pinching of its paw or if the respiration rate was greater than 100 breaths/minute. […]

[2] = tested on: MCh-induced depressor responses; test: Methacholine-induced depressor responses in conscious guinea pigs; assay type: in vivo; conditions: guinea pig, inhalation
Source text: Methacholine-Induced Depressor Responses in Conscious Guinea Pigs
Healthy, adult, male Sprague-Dawley guinea pigs (Harlan, Indianapolis, Ind.), weighing between 200 and 300 g were used in these studies. Under isoflurane anesthesia (to effect), animals were instrumented with common carotid artery and jugular vein catheters (PE-50 tubing). The catheters were exteriorized utilizing a subcutaneous tunnel to the subscapular area. All surgical incisions were sutured with 4-0 Ethicon Silk and the catheters locked with heparin (1000 units/mL). Each animal was administered saline (3 mL, SC) at the end of surgery as well as buprenorphine (0.05 mg/kg, IM). Animals were allowed to recover on a heating pad before being returned to their holding rooms.
Approximately 18 to 20 hours following surgery, the animals were weighed and the carotid artery catheter on each animal was connected to a transducer for recording arterial pressure. Arterial pressure and heart rate was recorded using a Biopac MP-100 Acquisition System. Animals were allowed to acclimate and stabilize for a period of 20 minutes.
Each animal was challenged with MCh (0.3 mg/kg, IV) administered through the jugular venous line and the cardiovascular response was monitored for 10 minutes. […] At 1.5 and 24 h post-dosing, the animals were re-challenged with MCh (0.3 mg/kg, IV) and the hemodynamic response was determined. […]

Structure (SMILES): CNCC(=O)NCCCCCN1CC[C@@H](C(C(N)=O)(c2ccccc2)c2ccccc2)C1 [Example 1]
- PD2(50) for ACh-induced bronchoconstriction [1]: less than 200 μg/mL
- apparent lung-selectivity index (ratio of anti-depressor ID50 to bronchoprotective ID50) [2]: greater than 5
